Measurements published in ChEMBL document CHEMBL2074113, “Interaction of human organic anion transporters 2 and 4 with organic anion transport inhibitors” (J Pharmacol Exp Ther, 2002).

Columns and labels:
[1] = target: T1, Solute carrier family 22 member 7 (Homo sapiens, UniProt Q9Y694); experiment: TP_TRANSPORTER: inhibition of PGF2alpha uptake in OAT2-expressing S2 cells; type: functional, cell-based; settings: for Activity: s2
T1 sequence (Q9Y694 whole entry): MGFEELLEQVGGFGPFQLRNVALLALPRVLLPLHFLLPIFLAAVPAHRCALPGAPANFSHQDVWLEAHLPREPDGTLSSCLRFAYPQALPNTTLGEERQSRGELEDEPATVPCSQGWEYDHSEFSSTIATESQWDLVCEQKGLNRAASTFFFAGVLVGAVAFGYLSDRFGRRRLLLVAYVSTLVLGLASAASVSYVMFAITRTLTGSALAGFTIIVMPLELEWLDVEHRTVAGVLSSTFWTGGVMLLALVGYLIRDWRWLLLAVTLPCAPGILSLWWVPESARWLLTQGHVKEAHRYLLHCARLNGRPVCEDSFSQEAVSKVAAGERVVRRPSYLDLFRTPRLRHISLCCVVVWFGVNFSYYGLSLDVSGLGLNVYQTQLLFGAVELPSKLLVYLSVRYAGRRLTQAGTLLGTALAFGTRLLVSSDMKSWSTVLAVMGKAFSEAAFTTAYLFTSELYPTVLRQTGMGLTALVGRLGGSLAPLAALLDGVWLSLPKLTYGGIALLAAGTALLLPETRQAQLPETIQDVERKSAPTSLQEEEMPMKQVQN

[2] = target: T2, Solute carrier family 22 member 11 (Homo sapiens, UniProt Q9NSA0); experiment: TP_TRANSPORTER: inhibition of E1S uptake in OAT4-expressing S2 cells; type: functional, cell-based
T2 sequence (Q9NSA0 whole entry): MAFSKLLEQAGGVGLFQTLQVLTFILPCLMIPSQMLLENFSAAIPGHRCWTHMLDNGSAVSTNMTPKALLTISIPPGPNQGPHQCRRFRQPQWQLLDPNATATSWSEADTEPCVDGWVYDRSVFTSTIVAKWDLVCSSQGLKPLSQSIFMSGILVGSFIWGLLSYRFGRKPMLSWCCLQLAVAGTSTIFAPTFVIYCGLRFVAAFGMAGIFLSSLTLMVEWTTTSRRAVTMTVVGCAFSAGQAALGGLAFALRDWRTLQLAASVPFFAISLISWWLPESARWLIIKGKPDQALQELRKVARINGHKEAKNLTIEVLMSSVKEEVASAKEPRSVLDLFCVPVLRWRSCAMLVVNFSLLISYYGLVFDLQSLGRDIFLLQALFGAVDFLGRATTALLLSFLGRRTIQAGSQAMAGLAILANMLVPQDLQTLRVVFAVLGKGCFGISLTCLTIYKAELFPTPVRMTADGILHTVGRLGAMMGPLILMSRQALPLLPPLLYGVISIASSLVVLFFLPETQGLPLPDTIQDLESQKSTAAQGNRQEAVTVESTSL

| Compound | Activity [1] | Ki [2] [µM] | Ki [1] [µM] |
| --- | --- | --- | --- |
| O=C(O)CCNC(=O)c1ccccc1 [BETAMIPRON] | is not an inhibitor [-] | 502 | – |
| CC1(C)C[C@@H]1C(=O)N/C(=C\CCCCSC[C@H](N)C(=O)O)C(=O)O [CILASTATIN] | is not an inhibitor [-] | – | – |
| CCCN(CCC)S(=O)(=O)c1ccc(C(=O)O)cc1 [PROBENECID] | – | – | 766 |
| CCCn1c(=O)c2[nH]c(C34CC5CC(CC3C5)C4)nc2n(CCC)c1=O [ROLOFYLLINE] | is not an inhibitor [-] | 20.7 | – |
